Results on one molecule are retold here after patent US20110207726A1, “Inhibitors of Human Cathepsin L, Cathepsin B, and Cathepsin S” (The Trustees of the University of Pennsylvania, priority 2008, published 2011).

The target in assay [1] is human cathepsin L (Homo sapiens, UniProt P07711). The assay can be described thus: Preincubation studies, cathepsin L. Also noted: 8.7 ng/mL human liver cathepsin L (Calbiochem 219402); purchased Calbiochem 219402; host or cells: human liver. The format is biochemical. Here is the method:
To establish the time-dependent mechanism of inhibition, enzyme and inhibitor were preincubated for various time points in a 96-well microplate prior to the addition of substrate to initiate the enzymatic reaction. 47.5 μL of cathepsin L (18.3 ng/mL) and 47.5 μL of Compound No. 1 at various concentrations in assay buffer were incubated up to 4 hours. Five μL of Z-Phe-Arg-AMC substrate were then added and the plate was monitored for AMC hydrolysis on the Envision fluorescent microplate reader.

For assay [2], the system named is Leishmania major promastigotes. Kind of assay: Leishmaniasis assay. It counts as cell-based. The note with it: read-out: IC50 against Leishmania major promastigotes. Here is the method:
Five thousand Leishmania major promastigotes were plated per well in a 384-well microtiter plate in a 20 μL volume of promastigote growth medium. Promastigotes were treated with a concentration range from 0 μM to 50 μM of Compound No. 1 for 44 hrs. Five pL Cell-Titer-Blue™ were added per well and incubated for 4 hrs. Relative fluorescence units (A560/A590) were captured on a SpectraMax M5 microtiter plate reader. DMSO concentrations were held constant at 0.5%.

Structures are written as SMILES. Like-named read-outs stand apart in the source and are kept apart here.

Sequence of human cathepsin L (P07711 114-288 limits assumed): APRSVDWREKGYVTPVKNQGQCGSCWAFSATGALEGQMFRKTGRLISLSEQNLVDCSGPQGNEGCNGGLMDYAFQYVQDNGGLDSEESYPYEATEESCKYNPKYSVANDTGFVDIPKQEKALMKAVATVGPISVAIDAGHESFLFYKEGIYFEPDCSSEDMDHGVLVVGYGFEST
Sequence of human cathepsin L (P07711 292-333 limits assumed): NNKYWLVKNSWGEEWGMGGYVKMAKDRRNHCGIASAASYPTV

In general, IC50 refers to the concentration that gives 50% inhibition. For the molecule `CCc1ccccc1NC(=O)CSC(=O)NNC(=O)[C@H](Cc1c[nH]c2ccccc12)NC(=O)OC(C)(C)C` [Compound No. 1], the IC50 in assay [1] (IC50 against human cathepsin L after 1 hour preincubation, preincubation with enzyme 1 h prior to substrate addition) is 7.5 ± 1 nM; in assay [1] (IC50 against human cathepsin L after 2 hours preincubation, preincubation with enzyme 2 h) it was 4.2 ± 0.6 nM; in assay [1] (preincubation with enzyme 4 h, read-out: IC50 against human cathepsin L after 4 hours preincubation) it was 1 ± 0.5 nM; in assay [2] it was 12500 ± 600 nM.
